From US20210227854A1, “USE OF D-RIBOSE TO ENHANCE ADAPTATION TO PHYSICAL STRESS” (Bioenergy Life Science, Inc., priority 2014, published 2021)

Tests used:
[1] = Blood urea nitrogen (BUN) around three days of high-intensity exercise; format: in vivo, human; details: for Change in BUN levels: Unfit Subgroup, p=0.88
Description: A high-intensity exercise protocol was designed as a double-blind, crossover study to assess the influence of D-Ribose adaptation to physical stress. Specifically, D-Ribose and a control (Dextrose) were administered on separate subjects at a dosage of ten grams per day (10 g/day). A variety of physiological parameters were measured in the subjects administered D-Ribose (DR) supplementation (i.e., the DR subjects) versus the subjects administered Dextrose (DEX) supplementation (i.e., the DEX subjects). To test D-ribose for adaptation, the twenty-six (26) adult subjects were further divided into two subgroups based on their fitness level (i.e., peak oxygen uptake (VO2 max) results. The first subgroup comprised subjects with higher VO2 max results (i.e., the “Fit Subgroup”) and the second subgroup comprised subjects with lower VO2 max results (i.e., the “Unfit Subgroup”). The Unfit Subgroup consisted of six (6) females and seven (7) males. The average age of the Unfit Subgroup was 27.7±3.4 years and the average peak VO2 of the Unfit Subgroup was 39.9±4.1 mL/kg/min. The Fit Subgroup consisted of four (4) females and nine (9) males. The average age of the Fit Subgroup was 27.6±3.5 year and the average peak VO2 of the Fit Subgroup was 52.2±4.3 mL/kg/min. […] Physiologic parameters were measured and hydration was provided to the subjects during the exercise session. […] Blood glucose was measured at all of the above time points except at twenty-four (24) hours post-exercise. Creatine kinase and BUN levels were measured at the pre-exercise (−10 min.) point during the three (3) days of exercise and twenty-four (24) hours post-exercise following the third (last) exercise session. Heart rate was recorded using a Polar HR monitor. Blood glucose levels were measured using a Bayer glucose monitor. Blood lactate levels were measured by an AccuSport Lactate Analyzer. Creatine kinase and BUN were measured utilizing an Abaxis Piccolo analyzer. Power data from the time trial performance test was assessed with the Sports Medicine Industries (SMI) software package.

[2] = Heart rate (HR) during exercise sessions; format: in vivo, human; details: for HR (bpm): 10 g/day, mean ± SD
Description: A high-intensity exercise protocol was designed as a double-blind, crossover study to assess the influence of D-Ribose adaptation to physical stress. Specifically, D-Ribose and a control (Dextrose) were administered on separate subjects at a dosage of ten grams per day (10 g/day). A variety of physiological parameters were measured in the subjects administered D-Ribose (DR) supplementation (i.e., the DR subjects) versus the subjects administered Dextrose (DEX) supplementation (i.e., the DEX subjects). To test D-ribose for adaptation, the twenty-six (26) adult subjects were further divided into two subgroups based on their fitness level (i.e., peak oxygen uptake (VO2 max) results. The first subgroup comprised subjects with higher VO2 max results (i.e., the “Fit Subgroup”) and the second subgroup comprised subjects with lower VO2 max results (i.e., the “Unfit Subgroup”). The Unfit Subgroup consisted of six (6) females and seven (7) males. The average age of the Unfit Subgroup was 27.7±3.4 years and the average peak VO2 of the Unfit Subgroup was 39.9±4.1 mL/kg/min. The Fit Subgroup consisted of four (4) females and nine (9) males. The average age of the Fit Subgroup was 27.6±3.5 year and the average peak VO2 of the Fit Subgroup was 52.2±4.3 mL/kg/min. The protocol of the double-blind crossover study involved an initial baseline assessment, followed by two separate day assessments after consuming either a DR or DEX supplement. Each exercise session entailed measurements of creatine kinase (CK), blood urea nitrogen (BUN), glucose, heart rate (HR), rate of perceived exertion (RPE), and power output (PO) measurements. Each exercise session consisted of six (6) ten-minute intervals of exercise on a cycle ergometer. During each ten-minute interval, the subject cycled for eight (8) minutes at a workload of approximately 60% of the subject's VO2 max, then immediately cycled for an additional two (2) minutes at a workload of approximately 80% VO2 max (approximately one workload above the subject's calculated lactate threshold). Cadence and power output were monitored at ten-minute intervals during each exercise session. At the end of the sixty-minute exercise session, each subject completed a two-minute performance task (time trial). This performance task required the subject to produce as much power as possible during the two-minute interval. Peak power, average power, and percent decline were assessed during this two-minute task trial. Workload for performance task was set at five percent (5%) of the subject's body weight. Heart rate was recorded using a Polar HR monitor. Blood glucose levels were measured using a Bayer glucose monitor. Blood lactate levels were measured by an AccuSport Lactate Analyzer. Creatine kinase and BUN were measured utilizing an Abaxis Piccolo analyzer. Power data from the time trial performance test was assessed with the Sports Medicine Industries (SMI) software package.

| SMILES | Change in BUN levels [1] | Average HR ([2]; Fit Subgroup) | HR (bpm) ([2]; Fit Subgroup) | Average HR ([2]; Unfit Subgroup) | HR (bpm) ([2]; Unfit Subgroup) | Change in BUN levels, DR versus DEX ([1]; Fit Subgroup) |
| --- | --- | --- | --- | --- | --- | --- |
| O=C[C@H](O)[C@@H](O)[C@H](O)[C@H](O)CO [DEX, Dextrose, reference compound] | 1.08±2.56 | 153±12 bpm | 152.4 ± 11.7 bpm | 153±17 bpm | 152.0 ± 19.5 bpm | – |
| O=C[C@H](O)[C@H](O)[C@H](O)CO [DR, D-Ribose] | 0.93±2.66 | 153±12 bpm | 152.6 ± 11.9 bpm | 152±20 bpm | 151.5 ± 19.4 bpm | No differences |
